Consider two compounds from patent US20250049029A1, “Agrochemical Compositions” (priority 2021, published 2025).

The nature of series [1]: Micrographic check for crystals after combining active ingredient with permeable S-metolachlor capsule suspension. Format: physicochemical. How it is done: During further testing, Composition 2 was made with metribuzin being the only active ingredient (i.e., S-metolachlor and mesotrione were not present). An image, at 50-micron scale bar, is provided at FIG. 4A. To this formulation, the capsule suspension used in Composition 2 was added.
Further testing was done by replacing the metribuzin with sulfentrazone. In these tests sulfentrazone technical (powder, Dv(95)=307 microns) was added to a composition the CS of Composition 2 at a ratio of S-metolachlor:sulfentrazone of 10:0.8, and mixed for 1 hour at 30° C. to provide additional solubilization over room temperature.

Series [2] in a line: Particle size and wet sieve residue of S-metolachlor CS mixed with sulfentrazone technical. Type of series: physicochemical. As to conditions: single component, before mixing. How it is done:
Additional testing was done using two jars with S-metolachlor CS of Composition 2 and 8% sulfentrazone technical at a ratio of […]. One was mixed at room temperature and one at 30° C. for 1 hour.

Each structure is given as a SMILES string.

For the compound `CSc1nnc(C(C)(C)C)c(=O)n1N` [metribuzin, Metribuzin], the metribuzin crystals visible result in series [1] (Composition 2 made with metribuzin as only active ingredient, after adding the capsule suspension used in Composition 2, FIG. 4B) was “no metribuzin crystals appeared visible”.

On to `Cc1nn(-c2cc(NS(C)(=O)=O)c(Cl)cc2Cl)c(=O)n1C(F)F` [sulfentrazone, Sulfentrazone], for which, in series [2], the “Dv(50)” value is reported as 30.3 and the “Dv(95)” value was determined as 307. For the same compound, the sulfentrazone crystals observed result in series [1] (sulfentrazone technical added to CS of Composition 2, S-metolachlor:sulfentrazone 10:0.8, mixed 1 hour at 30° C., FIG. 5) was “no sulfentrazone crystals were observed”. In addition, in series [1] (sulfentrazone technical powder, before addition), the “Dv(95)” value was 307 microns.
